Measured values from patent US11691972B2, “Compounds for targeted degradation of BRD9” (C4 Therapeutics, Inc., priority 2020, dated 2023).

target: T1, BRD9 (Homo sapiens, UniProt Q9H8M2); assay: HiBiT BRD9 degradation assay in 293T.166 (BRD9-HiBiT) cells; format: cell-based; set-up: endogenously expressing BRD9 with HiBiT fusion tag via CRISPR; host or cells: 293T.166 (BRD9-HiBiT), also expressing LgBiT ectopically; settings: Table 1; 293T.166 cells, 2.0 hours; class symbols; read-out: HiBiT-Degradation 293T.166 BRD9 2.0 hours (DC50)
T1 sequence (Q9H8M2 1-597): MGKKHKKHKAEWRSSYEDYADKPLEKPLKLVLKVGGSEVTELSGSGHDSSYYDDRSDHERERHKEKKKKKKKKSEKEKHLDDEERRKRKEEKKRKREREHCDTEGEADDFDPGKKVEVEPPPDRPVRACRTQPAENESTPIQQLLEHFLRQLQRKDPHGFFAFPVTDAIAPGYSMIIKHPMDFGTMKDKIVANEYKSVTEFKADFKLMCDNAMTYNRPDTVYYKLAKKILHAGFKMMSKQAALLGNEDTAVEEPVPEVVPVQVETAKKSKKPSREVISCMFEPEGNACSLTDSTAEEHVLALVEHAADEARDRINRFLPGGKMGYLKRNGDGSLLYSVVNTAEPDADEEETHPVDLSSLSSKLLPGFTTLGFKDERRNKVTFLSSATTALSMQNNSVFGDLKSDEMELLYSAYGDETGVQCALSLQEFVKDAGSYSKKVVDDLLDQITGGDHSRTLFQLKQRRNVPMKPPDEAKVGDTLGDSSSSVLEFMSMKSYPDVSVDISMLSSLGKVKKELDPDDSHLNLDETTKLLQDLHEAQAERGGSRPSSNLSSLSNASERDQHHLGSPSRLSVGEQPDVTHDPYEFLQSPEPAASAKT
Procedure, shortened: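 Luminescence from the Nano-Glo HiBiT lytic reagent quantified BRD9 loss after compounds (top 10 μM, half-log, 11 points, duplicates) were incubated 2 h at 37° C. with 10,000 293T.166 BRD9-HiBiT/LgBiT cells per well, with controls lacking compound or lacking reagent.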

DC50, < 100 nM:
COc1cc(-c2cn(C)c(=O)c3[nH]ncc23)cc(OC)c1CN1CCN(C(=O)Cc2ccc(-c3ccc(NC4CCC(=O)NC4=O)cc3)cc2)CC1 (stereo not shown) [Compound 167, 3-[4-[4-[2-[4-[[2,6-dimethoxy-4-(6-methyl-7-oxo-1H-pyrazolo[3,4-c]pyridin-4-yl)phenyl]methyl]piperazin-1-yl]-2-oxo-ethyl]phenyl]anilino]piperidine-2,6-dione]
COc1cc(-c2cn(C)c(=O)c3[nH]ncc23)cc(F)c1CN1CCC(C2CCN(c3ccc(NC4CCC(=O)NC4=O)cc3C(F)(F)F)CC2)CC1 (stereo not shown) [Compound 84]
COc1cc(-c2cn(C)c(=O)c3[nH]ncc23)cc(Cl)c1CN1CCc2c(CC3CCN(c4ccc(NC5CCC(=O)NC5=O)cc4F)CC3)cccc2C1 (stereo not shown) [Compound 105, 3-[4-[4-[[2-[[2-chloro-6-methoxy-4-(6-methyl-7-oxo-1H-pyrazolo[3,4-c]pyridin-4-yl)phenyl]methyl]-3,4-dihydro-1H-isoquinolin-5-yl]methyl]-1-piperidyl]-3-fluoro-anilino]piperidine-2,6-dione]
COc1cc(-c2cn(C)c(=O)c3[nH]ncc23)cc(F)c1CN1CCC(N(C)C(=O)N2CCC(c3ccc(NC4CCC(=O)NC4=O)cc3)CC2)CC1 (stereo not shown) [Compound 112, 4-[4[(2,6-dioxo-3-piperidyl)amino]phenyl]-N-[1-[[2-fluoro-6-methoxy-4-(6-methyl-7-oxo-1H-pyrazolo[3,4-c]pyridin-4-yl)phenyl]methyl]-4-piperidyl]-N-methyl-piperidine-1-carboxamide]
COc1cc(-c2cn(C)c(=O)c3cnccc23)cc(OC)c1CN1CCN(C(=O)CC2CCN(c3ccc(NC4CCC(=O)NC4=O)cc3C(F)(F)F)CC2)CC1 (stereo not shown) [Compound 54]
COc1cc(-c2cn(C)c(=O)c3[nH]ncc23)cc(Cl)c1CN1CCN(C(=O)CN2CCC(c3ccc(NC4CCC(=O)NC4=O)cc3)CC2)CC1 (stereo not shown) [Compound 12]
COc1cc(-c2cn(C)c(=O)c3cnccc23)cc(OC)c1CN1CCc2c(CN3CCC(c4ccc(NC5CCC(=O)NC5=O)cc4)CC3)cccc2C1 (stereo not shown) [Compound 96]
COc1cc(-c2cn(C)c(=O)c3cnccc23)cc(OC)c1CN1CCC(N2CCN(c3ccc(NC4CCC(=O)NC4=O)cc3F)CC2)C(F)(F)C1 (stereo not shown) [Compound 184]
COc1cc(-c2cn(C)c(=O)c3cnccc23)cc(Cl)c1CN1CCC(C2CCN(c3ccc(NC4CCC(=O)NC4=O)nc3)CC2)CC1 (stereo not shown) [Compound 89]
COc1cc(-c2cn(C)c(=O)c3cnccc23)cc(Cl)c1CN1CCC(C2CCN(c3ccc(NC4CCC(=O)NC4=O)cc3F)CC2)C(F)(F)C1 (stereo not shown) [Compound 199]
Cc1c(-c2ccc(CN3CCC(F)(C4CCN(c5ccc(NC6CCC(=O)NC6=O)cc5F)CC4)CC3)c(OC(F)(F)F)c2)cn(C)c(=O)c1C (stereo not shown) [Compound 244]
COc1cc(-c2cn(C)c(=O)c(C)c2C)cc(Cl)c1CN1CCC(N2CCN(c3ccc(NC4CCC(=O)NC4=O)cc3F)CC2)C(F)(F)C1 (stereo not shown) [Compound 190]
COc1cc(-c2cn(C)c(=O)c3cnccc23)cc(OC)c1CN1CCN(C(=O)CC2CCN(c3ccc(NC4CCC(=O)NC4=O)cc3C(F)(F)F)CC2)CC1 (single isomer, unassigned) [Compound 55]
COc1cc(-c2cn(C)c(=O)c3cnccc23)cc(Cl)c1CN1CCC(N2CCN(c3ccc(OC4CCC(=O)NC4=O)cc3F)CC2)C(F)(F)C1 (stereo not shown) [Compound 230, 3-[4-[4-[1-[[2-chloro-6-methoxy-4-(2-methyl-1-oxo-2,7-naphthyridin-4-yl)phenyl]methyl]-3,3-difluoro-4-piperidyl]piperazin-1-yl]-3-fluoro-phenoxy]piperidine-2,6-dione]
COc1cc(-c2cn(C)c(=O)c3[nH]ncc23)cc(F)c1CN1CCN(C(=O)CN2CCC(c3ccc(N(C)C4CCC(=O)NC4=O)cc3)CC2)CC1 (stereo not shown) [Compound 35]
Cc1c(-c2ccc(C(=O)N3CCC(N(C)C(=O)N4CCC(c5ccc(NC6CCC(=O)NC6=O)cc5)CC4)CC34CC4)c(OC(F)(F)F)c2)cn(C)c(=O)c1C (stereo not shown) [Compound 137]
COc1cc(-c2cn(C)c(=O)c3[nH]ncc23)cc(F)c1CN1CCN(C(=O)CN2CCC(c3ccc(NC4CCC(=O)NC4=O)cc3C(F)(F)F)CC2)CC1 (stereo not shown) [Compound 23]
COc1cc(-c2cn(C)c(=O)c3[nH]ncc23)cc(OC)c1CN1CCN(C(=O)CC2CCN(c3ccc(NC4CCC(=O)NC4=O)cc3C(F)(F)F)CC2)CC12CC2 (stereo not shown) [Compound 58]
Cc1c(-c2ccc(C(=O)N3CCC(C4CCN(c5ccc(NC6CCC(=O)NC6=O)cc5F)CC4)CC3)c(OC(F)(F)F)c2)cn(C)c(=O)c1C (stereo not shown) [Compound 212, 3-[3-fluoro-4-[4-[1-[2-(trifluoromethoxy)-4-(1,4,5-trimethyl-6-oxo-3-pyridyl)benzoyl]-4-piperidyl]-1-piperidyl]anilino]piperidine-2,6-dione]
COc1cc(-c2cn(C)c(=O)c3[nH]ncc23)cc(OC)c1CN1CCn2c(CN3CCC(c4ccc(NC5CCC(=O)NC5=O)cc4)CC3)ccc2C1 (stereo not shown) [Compound 102]
CN(C(=O)N1CCC(c2ccc(NC3CCC(=O)NC3=O)cc2)CC1)C1CCN(Cc2ccc(-c3cn(C)c(=O)c4ccccc34)cc2OC(F)(F)F)CC1 (stereo not shown) [Compound 113]
Cc1c(-c2ccc(CN3CCC(C4CCN(c5ccc(NC6CCC(=O)NC6=O)cc5F)CC4)CC3)c(OC(F)(F)F)c2)cn(C)c(=O)c1C (stereo not shown) [Compound 80]
COc1cc(-c2cn(C)c(=O)c(C)c2C)cc(Cl)c1C(=O)N1CCC(C2CCN(c3ccc(NC4CCC(=O)NC4=O)cn3)CC2)CC1 (stereo not shown) [Compound 218, 3-[[6-[4-[1-[2-chloro-6-methoxy-4-(1,4,5-trimethyl-6-oxo-3-pyridyl)benzoyl]-4-piperidyl]-1-piperidyl]-3-pyridyl]amino]piperidine-2,6-dione]
COc1cc(-c2cn(C)c(=O)c3cnccc23)cc(Cl)c1CN1CCC(N2CCN(c3ccc(NC4CCC(=O)NC4=O)cc3F)CC2)C(F)(F)C1 (single isomer, unassigned) [Compound 180, 3-[4-[4-[1-[[2-chloro-6-methoxy-4-(2-methyl-1-oxo-2,7-naphthyridin-4-yl)phenyl]methyl]-3,3-difluoro-4-piperidyl]piperazin-1-yl]-3-fluoro-anilino]piperidine-2,6-dione]
Cn1cc(-c2ccc(CN3CCC(C4CCN(c5ccc(NC6CCC(=O)NC6=O)cc5F)CC4)CC3)c(OC(F)(F)F)c2)c2ccncc2c1=O (stereo not shown) [Compound 79]

same assay, conditions: Table 2; 293T.166 cells, 2.0 hours; class symbols; read-out: HiBiT-Degradation 293T.166 BRD9 2.0 hours (DC50)

DC50, < 100 nM:
COc1cc(-c2cn(C)c(=O)c3cnccc23)cc(Cl)c1CN1CCC(N2CCN(c3ccc(N(C)C4CCC(=O)NC4=O)cc3F)CC2)C(F)(F)C1 (stereo not shown) [Compound 254, 3-[4-[4-[1-[[2-chloro-6-methoxy-4-(2-methyl-1-oxo-2,7-naphthyridin-4-yl)phenyl]methyl]-3,3-difluoro-4-piperidyl]piperazin-1-yl]-3-fluoro-N-methyl-anilino]piperidine-2,6-dione]
COc1cc(-c2cn(C)c(=O)c(C)c2C)cc(OC)c1CN1C2CCC1CN(C(=O)CC1CCN(c3ccc(NC4CCC(=O)NC4=O)nc3)CC1)C2 (stereo not shown) [Compound 272]
COc1cc(-c2cn(C)c(=O)c3cnccc23)cc(Cl)c1CN1CCC(C2CCN(c3ccc(NC4CCC(=O)NC4=O)nc3)CC2)C(F)(F)C1 (stereo not shown) [Compound 262]
